From patent EP4800018A1, “PAN-KRAS INHIBITOR AND USE THEREOF IN MEDICINES” (Betta Pharmaceuticals Co., Ltd., priority 2023, dated 2025)
Where two headings read alike, the source gives them in different places.

Experiments:
Type in all cases: cell-based
[1] = tested on: KRAS-G12D mutant tumor cells AGS; assay: Cell Proliferation Inhibition Assay (AGS), Cell-titer GLO, 96 h; conditions: Homo sapiens, AGS, 96 h, read-out: AGS(G12D)
In short: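 AGS cells (KRAS-G12D) grown in low-attachment plates were exposed to compound for 96 h at 37°C. Viability was read by CellTiter-Glo luminescence and converted to % inhibition against max and blank wells. IC50 came from curve fitting.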

[2] = tested on: KRAS-G12V mutant tumor cells SW620; assay: Cell Proliferation Inhibition Assay (SW620), Cell-titer GLO, 96 h; conditions: Homo sapiens, SW-620, 96 h, read-out: SW620(G12V)
In short: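 SW620 cells (1×10^3/well, low-attachment) were exposed to compound from 10000 to 0.03 nM (0.5% DMSO) for 96 h at 37°C. Viability was read by Cell-titer GLO luminescence. Inhibition was calculated relative to DMSO and blank wells, and IC50 obtained by curve fitting.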

KRAS G12V-cRAF = target: T1, KRAS G12V-cRAF (Homo sapiens, UniProt P01116, G12V); assay: Cellular KRAS G12V-cRAF Binding Inhibition Assay (NanoBRET, AD293 stable cells)
T1 construct: expressed in transfected cells
Method: NanoLuc® luciferase was used as the energy donor, and NanoBRET™ 618 fluorescent ligand labeled with the HaloTag® protein was used as the energy acceptor to detect protein-protein interactions in living cells. […] Except for wells with medium added as a blank control, NanoBRET™ 618 fluorescent ligand was added to all other wells, and the plates were cultured overnight in a cell culture incubator. […] The luminescence data were calculated and converted into inhibition percent. The inhibition percent of KRAS G12V-cRAF binding was calculated according to the following formula: Inhibition Percent = (MaxValue−MeasuredValue)/(MaxValue−Blank) × 100% [formula] […] Curve fitting was performed using GraphPad Prism software to obtain IC50 values, see Table 1.

KRAS G12D-cRAF = target: T2, KRAS G12D-cRAF (Homo sapiens, UniProt P01116, G12D); assay: Cellular KRAS G12D-cRAF Binding Inhibition Assay (NanoBRET, AD293 stable cells)
T2 construct: expressed in transfected cells
Method: NanoLuc® luciferase was used as the energy donor, and NanoBRET™ 618 fluorescent ligand labeled with the HaloTag® protein was used as the energy acceptor to detect protein-protein interactions in living cells. AD293 stable cells transfected with KRAS G12D-NanoLuc® luciferase and cRAF RBD-HaloTag® tag protein were seeded in 96-well plates at a cell density of 1×10^4 cells/well. Except for wells with medium added as a blank control, NanoBRET™ 618 fluorescent ligand was added to all other wells, and the plates were cultured overnight in a cell culture incubator. […] The luminescence data were calculated and converted into inhibition percent. The inhibition percent of KRAS G12D-cRAF binding was calculated according to the following formula: Inhibition Percent = (MaxValue−MeasuredValue)/(MaxValue−Blank) × 100% [formula] […] Curve fitting was performed using GraphPad Prism software to obtain IC50 values, see Table 1.

[3] = AGS cells, 96 h incubation, Cell-titer GLO
[4] = SW620 cells, 96 h incubation, Cell-titer GLO
[5] = 3 h incubation, read-out: NanoBRET KRAS G12V
[6] = 3 h incubation, read-out: NanoBRET KRAS G12D

T2 sequence (P01116 1-188 isoform P01116-2 G12D): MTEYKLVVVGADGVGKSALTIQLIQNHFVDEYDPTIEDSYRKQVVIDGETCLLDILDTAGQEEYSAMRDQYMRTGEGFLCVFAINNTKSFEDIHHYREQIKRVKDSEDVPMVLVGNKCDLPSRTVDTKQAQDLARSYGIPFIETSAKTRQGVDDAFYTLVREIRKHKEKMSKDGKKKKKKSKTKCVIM
T1 sequence (P01116 1-188 isoform P01116-2 G12V): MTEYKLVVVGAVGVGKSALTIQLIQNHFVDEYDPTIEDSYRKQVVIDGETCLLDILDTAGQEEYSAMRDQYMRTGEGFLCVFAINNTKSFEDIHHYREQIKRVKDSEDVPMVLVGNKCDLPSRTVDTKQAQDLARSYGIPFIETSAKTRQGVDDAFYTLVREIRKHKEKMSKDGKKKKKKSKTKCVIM

Compound | IC50 [1, 3] [nM] | IC50 [2, 4] [nM] | IC50 (KRAS G12V-cRAF; [5]) [nM] | IC50 (KRAS G12D-cRAF; [6]) [nM] | IC50 [1] [nM] | IC50 [2] [nM] | IC50 (KRAS G12V-cRAF; read-out: NanoBRET KRAS G12V, 3 h incubation) [nM] | IC50 (KRAS G12D-cRAF; read-out: NanoBRET KRAS G12D, 3 h incubation) [nM]
CC1OCCCn2c(c3c4cc(ccc42)-c2csc(n2)CC(NC(=O)C2CC2C(F)F)C(=O)N2CCCC(N2)C(=O)OCC(C)(C)C3)-c2cc(N3CC(N(C)C)C3)cnc21 [Example 94, (1S,2S)-2-(difluoromethyl)-N-((1^5S,6^3S,4S,Z)-1^2-(3-(dimethylamino)azetidin-1-yl)-1^5,10,10-trimethyl-5,7-dioxo-1^8,1^9,6^1,6^2,6^3,6^4,6^5,6^6-octahydro-1^5H,1^7H-8-oxa-1(13,15)-pyrido[3',2':7,8][1,5]oxazonino[5,6-a]indola-2(4,2)-thiazola-6(1,3)-pyridazinacycloundecaphane-4-yl)cyclopropane-1-carboxamide] | 2.68 | 0.34 | 22.7 | 6.55 |  |  |  | 
CC1OCCCn2c(c3c4cc(ccc42)-c2csc(n2)CC(NC(=O)C2CC2C(F)F)C(=O)N2CCCC(N2)C(=O)OCC(C)(C)C3)-c2cc(-c3ccc(N4CCN(C)CC4)cc3)cnc21 [Example 96, (1S,2S)-2-(difluoromethyl)-N-((1^5S,6^3S,4S,Z)-1^5,10,10-trimethyl-1^2-(4-(4-methylpiperazin-1-yl)phenyl)-5,7-dioxo-1^8,1^9,6^1,6^2,6^3,6^4,6^5,6^6-octahydro-15H,17H-8-oxa-1(13,15)-pyrido[3',2':7,8][1, 5]oxazonino[5,6-a]indola-2(4,2)-thiazola-6(1,3)-pyridazinacycloundecaphane-4-yl)cyclopropane-1-carboxamide] | 2.4 | 1.07 | 19.8 | 5.99 |  |  |  | 
CC1OCCCn2c(c3c4cc(ccc42)-c2csc(n2)CC(NC(=O)C2CC2C(F)F)C(=O)N2CCCC(N2)C(=O)OCC(C)(C)C3)-c2cc(OC3CCN(C)CC3)cnc21 [Example 97, (1S,2S)-2-(difluoromethyl)-N-((1^5S,6^3S,4S,Z)-1^5,10,10-trimethyl-1^2-((1-methylpiperidin-4-yl)oxy)-5,7-dioxo-1^8,1^9,6^1,6^2,6^3,6^4,6^5,6^6-octahydro-1^5H,1^7H-8-oxa-1(13,15)-pyrido[3',2':7,8][1,5]oxazonino[5,6-a]indola-2(4,2)-thiazola-6(1,3)-pyridazinacycloundecaphane-4-yl)cyclopropane-1-carb oxamide] | 2.69 | 0.42 | 61.8 | 11.9 |  |  |  | 
CC1OCCCn2c(c3c4cc(ccc42)-c2csc(n2)CC(NC(=O)C24CC(C)(C2)C4)C(=O)N2CCCC(N2)C(=O)OCC(C)(C)C3)-c2cc(N3CCN(CC(F)F)CC3)cnc21 [Example 98, N-((1^5S,6^3S,4S,Z)-1^2-(4-(2,2-difluoroethyl)piperazin-1-yl)-1^5,10,10-trimethyl-5,7-dioxo-1^8,1^9,6^1, 6^2,6^3,6^4,6^5,6^6-octahydro-1^5H,1^7H-8-oxa-1(13,15)-pyrido[3',2':7,8][1,5]oxazonino[5,6-a]indola-2(4,2)-thiazola-6(1,3)-pyridazinacycloundecaphane-4-yl)-3-methylbicyclo[1.1.1]pentane-1-carbox amide] | 13.2 | 3.87 | 61.7 | 14.8 |  |  |  | 
CC1OCCCn2c(c3c4cc(ccc42)-c2csc(n2)CC(NC(=O)C2CC2C(F)F)C(=O)N2CCCC(N2)C(=O)OCC(C)(C)C3)-c2cc(N3CC(N4CCN(C)CC4)C3)cnc21 [Example 99, (1S,2S)-2-(difluoromethyl)-N-((1^5S,6^3S,4S,Z)-1^5,10,10-trimethyl-1^2-(3-(4-methylpiperazin-1-yl)azetidin-1-yl)-5,7-dioxo-1^8,1^9,6^1,6^2,6^3,6^4,6^5,6^6-octahydro-1^5H,1^7H-8-oxa-1(13,15)-pyrido[3',2':7, 8][1,5]oxazonino[5,6-a]indola-2(4,2)-thiazola-6(1,3)-pyridazinacycloundecaphane-4-yl)cyclopro pane-1-carboxamide] |  |  | 13.3 | 4.25 | 0.74 | 0.14 |  | 
C[C@@H]1OCCCn2c(c3c4cc(ccc42)-c2csc(n2)C[C@H](NC(=O)[C@H]2C[C@@H]2C(F)F)C(=O)N2CCC[C@H](N2)C(=O)OCC(C)(C)C3)-c2cc(N3CC4(CCN(C)CC4)C3)cnc21 [Example 100, (1S,2S)-2-(difluoromethyl)-N-((1^5S,6^3S,4S,Z)-1^5,10,10-trimethyl-1^2-(7-methyl-2,7-diazaspiro[3. 5]nonan-2-yl)-5,7-dioxo-1^8,1^9,6^1,6^2,6^3,6^4,6^5,6^6-octahydro-1^5H,1^7H-8-oxa-1(13,15)-pyrido[3',2':7, 8][1,5]oxazonino[5,6-a]indola-2(4,2)-thiazola-6(1,3)-pyridazinacycloundecaphane-4-yl)cyclopro pane-1-carboxamide] |  |  |  |  | 0.44 | 0.1 | 21.7 | 4.55
COCCN1CCN(c2cnc3c(c2)-c2c4c5cc(ccc5n2CCCOC3C)-c2csc(n2)CC(NC(=O)C2CC2C(F)F)C(=O)N2CCCC(N2)C(=O)OCC(C)(C)C4)CC1 [Example 101, (1S,2S)-2-(difluoromethyl)-N-((1^5S,6^3S,4S,Z)-1^2-(4-(2-methoxyethyl)piperazin-1-yl)-1^5,10,10-trimethyl-5,7-dioxo-1^8,1^9,6^1,6^2,6^3,6^4,6^5,6^6-octahydro-1^5H,1^7H-8-oxa-1(13,15)-pyrido[3',2':7,8][1,5]oxazonino[5,6-a]indola-2(4,2)-thiazola-6(1,3)-pyridazinacycloundecaphane-4-yl)cyclopropane-1-carboxamide] | 1.4 | 0.26 | 12 | 2.74 |  |  |  | 
CC1OCCCn2c(c3c4cc(ccc42)-c2csc(n2)CC(NC(=O)C2CC2C(F)F)C(=O)N2CCCC(N2)C(=O)OCC(C)(C)C3)-c2cc(N3CCC(N4CCN(C)CC4)CC3)cnc21 [Example 102, (1S,2S)-2-(difluoromethyl)-N-((1^5S,6^3S,4S,Z)-1^5,10,10-trimethyl-1^2-(4-(4-methylpiperazin-1-yl)piperidin-1-yl)-5,7-dioxo-1^8,1^9,6^1,6^2,6^3,6^4,6^5,6^6-octahydro-1^5H,1^7H-8-oxa-1(13,15)-pyrido[3',2':7 ,8][1,5]oxazonino[5,6-a]indola-2(4,2)-thiazola-6(1,3)-pyridazinacycloundecaphane-4-yl)cyclopr opane-1-carboxamide] | 0.38 | 0.17 | 14.7 | 4.13 |  |  |  | 
CC1OCCCn2c(c3c4cc(ccc42)-c2csc(n2)CC(NC(=O)C2CC2C(F)F)C(=O)N2CCCC(N2)C(=O)OCC(C)(C)C3)-c2cc(N3CCC4(CCN(C)CC4)CC3)cnc21 [Example 103, (1S,2S)-2-(difluoromethyl)-N-((1^5S,6^3S,4S,Z)-1^5,10,10-trimethyl-1^2-(9-methyl-3,9-diazaspiro[5. 5]undecan-3-yl)-5,7-dioxo-1^8,1^9,6^1,6^2,6^3,6^4,6^5,6^6-octahydro-1^5H,1^7H-8-oxa-1(13,15)-pyrido[3',2': 7,8][1,5]oxazonino[5,6-a]indola-2(4,2)-thiazola-6(1,3)-pyridazinacycloundecaphane-4-yl)cyclop ropane-1-carboxamide] | 0.85 | 0.21 | 22.2 | 7.74 |  |  |  | 
CC1OCCCn2c(c3c4cc(ccc42)-c2csc(n2)CC(NC(=O)C2CC2C(F)F)C(=O)N2CCCC(N2)C(=O)OCC(C)(C)C3)-c2cc(N3CCN(C4CCN(C)CC4)CC3)cnc21 [Example 104, (1S,2S)-2-(difluoromethyl)-N-((1^5S,6^3S,4S,Z)-1^5,10,10-trimethyl-1^2-(4-(1-methylpiperidin-4-yl)piperazin-1-yl)-5,7-dioxo-1^8,1^9,6^1,6^2,6^3,6^4,6^5,6^6-octahydro-1^5H,1^7H-8-oxa-1(13,15)-pyrido[3',2': 7,8][1,5]oxazonino[5,6-a]indola-2(4,2)-thiazola-6(1,3)-pyridazinacycloundecaphane-4-yl)cyclop ropane-1-carboxamide] | 0.63 | 0.2 | 11.8 | 3.2 |  |  |  | 
